Data from patent US6462038B1, “Androgen receptor modulator compounds and methods” (Ligand Pharmaceuticals, Inc., priority 1999, dated 2002).

Tests used:
Format in all cases: cell-based
[1] = molecular target: T1, MR (Homo sapiens, UniProt P08235); experiment: co-transfection assay, MR antagonist
T1 construct: expressed in transfected cells; host or cells: CV-1 cells
T1 sequence (P08235 1-984): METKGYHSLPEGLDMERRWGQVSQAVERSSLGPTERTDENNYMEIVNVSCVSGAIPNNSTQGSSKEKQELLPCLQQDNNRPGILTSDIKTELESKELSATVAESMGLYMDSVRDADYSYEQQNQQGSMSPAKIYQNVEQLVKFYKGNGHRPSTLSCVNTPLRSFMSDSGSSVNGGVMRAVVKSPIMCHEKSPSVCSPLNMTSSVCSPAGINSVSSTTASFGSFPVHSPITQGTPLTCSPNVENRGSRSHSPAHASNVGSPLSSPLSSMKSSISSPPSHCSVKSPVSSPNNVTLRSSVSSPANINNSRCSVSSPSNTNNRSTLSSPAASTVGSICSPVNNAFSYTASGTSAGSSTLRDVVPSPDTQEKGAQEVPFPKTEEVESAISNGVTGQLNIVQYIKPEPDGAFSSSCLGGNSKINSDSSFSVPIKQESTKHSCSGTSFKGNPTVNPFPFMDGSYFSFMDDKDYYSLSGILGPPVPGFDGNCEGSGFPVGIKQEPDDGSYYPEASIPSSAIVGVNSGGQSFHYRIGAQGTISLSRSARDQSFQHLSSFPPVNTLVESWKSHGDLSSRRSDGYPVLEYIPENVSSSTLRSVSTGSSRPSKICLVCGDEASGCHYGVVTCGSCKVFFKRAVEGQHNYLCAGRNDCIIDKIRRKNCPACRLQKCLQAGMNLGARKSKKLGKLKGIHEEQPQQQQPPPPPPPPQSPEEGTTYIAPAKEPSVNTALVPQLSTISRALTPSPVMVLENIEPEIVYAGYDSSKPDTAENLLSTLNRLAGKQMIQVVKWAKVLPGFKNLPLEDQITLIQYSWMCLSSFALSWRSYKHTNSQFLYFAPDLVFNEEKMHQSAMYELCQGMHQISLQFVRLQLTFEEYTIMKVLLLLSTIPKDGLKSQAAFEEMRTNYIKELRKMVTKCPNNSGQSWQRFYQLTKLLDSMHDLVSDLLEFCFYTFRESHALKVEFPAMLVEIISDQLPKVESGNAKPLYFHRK
Experimental: (§1) CV-1 cells (African green monkey kidney fibroblasts) were cultured in the presence of Dulbecco's Modified Eagle Medium (DMEM) supplemented with 10% charcoal resin-stripped fetal bovine serum (CH-FBS) then transferred to 96-well microtiter plates one day prior to transfection.
(§2) Three to four replicates were used for each sample.
(§3) After 40 hours, the cells were washed with PBS, lysed with a Triton X-100-based buffer and assayed for LUC and β-Gal activities using a luminometer or spectrophotometer, respectively. For each replicate, the normalized response (NR) was calculated as: […]

[2] = molecular target: T2, ER (Homo sapiens, UniProt P03372); experiment: co-transfection assay, ER agonist
T2 construct: expressed in transfected cells; host or cells: CV-1 cells
T2 sequence (P03372 whole entry): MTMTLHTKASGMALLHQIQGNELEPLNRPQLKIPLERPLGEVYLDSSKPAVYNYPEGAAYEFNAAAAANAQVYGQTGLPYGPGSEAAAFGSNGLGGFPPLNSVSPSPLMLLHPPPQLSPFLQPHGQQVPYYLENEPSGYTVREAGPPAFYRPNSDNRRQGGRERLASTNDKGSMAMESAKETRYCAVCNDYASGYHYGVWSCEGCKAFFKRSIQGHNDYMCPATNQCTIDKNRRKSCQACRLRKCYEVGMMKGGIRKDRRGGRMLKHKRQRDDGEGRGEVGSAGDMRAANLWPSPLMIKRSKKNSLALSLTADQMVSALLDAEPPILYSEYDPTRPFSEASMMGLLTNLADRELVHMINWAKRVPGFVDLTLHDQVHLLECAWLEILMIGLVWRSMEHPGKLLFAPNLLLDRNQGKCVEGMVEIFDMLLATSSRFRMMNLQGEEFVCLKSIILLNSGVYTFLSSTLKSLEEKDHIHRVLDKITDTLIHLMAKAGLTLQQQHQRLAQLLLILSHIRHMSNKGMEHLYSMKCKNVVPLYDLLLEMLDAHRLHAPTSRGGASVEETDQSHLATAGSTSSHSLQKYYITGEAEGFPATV
Experimental: as §1, §2, §3

[3] = molecular target: T3, PR (Homo sapiens, UniProt P06401); experiment: co-transfection assay, PR antagonist (in presence of progesterone)
T3 construct: expressed in transfected cells; host or cells: CV-1 cells
T3 sequence (P06401 1-933): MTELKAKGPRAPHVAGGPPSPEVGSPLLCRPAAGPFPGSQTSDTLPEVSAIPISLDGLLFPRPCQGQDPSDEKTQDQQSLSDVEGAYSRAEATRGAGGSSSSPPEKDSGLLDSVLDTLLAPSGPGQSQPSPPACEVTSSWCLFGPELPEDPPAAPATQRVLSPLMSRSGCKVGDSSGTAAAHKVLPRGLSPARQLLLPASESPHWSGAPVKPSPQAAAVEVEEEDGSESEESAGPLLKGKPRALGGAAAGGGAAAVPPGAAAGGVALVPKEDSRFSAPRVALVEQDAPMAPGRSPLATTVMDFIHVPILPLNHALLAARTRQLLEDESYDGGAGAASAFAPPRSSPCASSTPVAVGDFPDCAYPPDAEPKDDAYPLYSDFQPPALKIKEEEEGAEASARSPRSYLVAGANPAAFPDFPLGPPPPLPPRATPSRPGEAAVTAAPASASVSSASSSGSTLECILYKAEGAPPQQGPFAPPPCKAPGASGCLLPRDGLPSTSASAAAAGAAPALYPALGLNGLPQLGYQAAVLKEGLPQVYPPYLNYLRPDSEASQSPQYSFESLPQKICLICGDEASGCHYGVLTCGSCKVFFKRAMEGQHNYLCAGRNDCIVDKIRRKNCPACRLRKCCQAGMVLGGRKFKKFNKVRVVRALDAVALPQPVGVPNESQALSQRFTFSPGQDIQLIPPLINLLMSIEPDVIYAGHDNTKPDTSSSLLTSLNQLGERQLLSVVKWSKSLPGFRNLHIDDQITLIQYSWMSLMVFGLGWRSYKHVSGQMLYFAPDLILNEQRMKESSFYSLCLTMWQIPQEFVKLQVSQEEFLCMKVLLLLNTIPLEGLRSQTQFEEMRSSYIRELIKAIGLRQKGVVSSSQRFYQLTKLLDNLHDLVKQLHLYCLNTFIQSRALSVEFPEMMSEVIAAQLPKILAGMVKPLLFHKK
Experimental: as §1, §2, §3

| SMILES | IC50 [1] | EC50 [2] | IC50 [3] |
| --- | --- | --- | --- |
| CN1CCOc2cc3c(cc21)c(C(F)(F)F)cc(=O)n3C [Compound 102, 1,2,3,6-Tetrahydro-1,6-dimethyl-9-(trifluoromethyl)-7H-[1,4]oxazino[3,2-g]quinolin-7-one] | > 10 µM | > 10 µM | 4.1 µM |
| CCN1CCOc2cc3c(cc21)c(C(F)(F)F)cc(=O)n3C [Compound 104, 1-Ethyl-1,2,3,6-tetrahydro-6-methyl-9-(trifluoromethyl)-7H-[1,4]oxazino[3,2-g]quinolin-7-one] | 1.8 µM | > 10 µM | 2 µM |
| O=c1cc(C(F)(F)F)c2cc3c(cc2[nH]1)OCCN3CC(F)(F)F [Compound 105, 1,2,3,6-Tetrahydro-1-(2,2,2-trifluoroethyl)-9-(trifluoromethyl)-7H-[1,4]oxazino[3,2-g]quinolin-7-one] | > 10 µM | > 10 µM | 3 µM |
| O=C1COc2cc3[nH]c(=O)cc(C(F)(F)F)c3cc2N1CC(F)(F)F [Compound 137, 1,6-Dihydro-1-(2,2,2-trifluoroethyl)-9-(trifluoromethyl)-3H-[1,4]oxazino[3,2-g]-quinolin-2,7-dione] | > 10 µM | > 10 µM | > 10 µM |
